These results are taken from patent US9226927B2, “Gamma secretase inhibitors” (MERCK SHARP & DOHME CORP., priority 2011, dated 2016).

In the test the target is γ-secretase (Homo sapiens (Human), UniProt P49768). Kind of test: γ-secretase membrane assay with Aβ40 ECL immunoassay. Type of test: biochemical. The note with it: membranes of 293 cells expressing C99 (SPC99-lon), 37° C. for 1 h, Aβ 40 by ECL immunoassay. As for the experimental part:
Gamma-secretase activity was determined as described by Zhang et al. (Biochemistry, 40 (16), 5049-5055, 2001), which is herein incorporated by reference. Activity is expressed either as a percent inhibition or as the concentration of compound producing 50% inhibition of enzyme activity.
The construct SPC99-Ion, which contains the first 18 residues and the C-terminal 99 amino acids of APP carrying the London mutation, has been described (Zhang, L., Song, L., and Parker, E. (1999) J. Biol. Chem. 274, 8966-8972). Upon insertion into the membrane, the 17 amino acid signal peptide is processed, leaving an additional leucine at the N-terminus of Aβ. SPC99-lon was cloned into the pcDNA4/TO vector (Invitrogen) and transfected into 293 cells stably transfected with pcDNA6/TR, which is provided in the T-REx system (Invitrogen). The transfected cells were selected in Dulbecco's modified Eagle's media (DMEM) supplemented with 10% fetal bovine serum, 100 units/mL penicillin, 100 µg/mL streptomycin, 250 µg/mL zeocin, and 5 µg/mL blasticidin (Invitrogen). Colonies were screened for Aβ production by inducing C99 expression with […] tetracycline for 16-20 h and analyzing conditioned media with a sandwich immunoassay (see below). One of the clones, designated as pTRE.15, was used in these studies.
C99 expression in cells was induced with […] tetracycline for 20 h. The cells were pretreated with […] 12-myristate 13-acetate (PMA) and […] brefeldin A (BFA) for 5-6 h at 37 C before harvesting. The cells were washed 3 times with cold phosphate-buffered saline (PBS) and harvested in buffer A containing 20 mM Hepes (pH 7.5), 250 mM sucrose, 50 mM KCl, 2 mM EDTA, 2 mM EGTA, and Complete protease inhibitor tablets (Roche Molecular Biochemicals). The cell pellets were flash-frozen in liquid nitrogen and stored at −70° C. before use.
To make membranes, the cells were resuspended in buffer A and lysed in a nitrogen bomb at 600 psi. The cell lysate was centrifuged at 1500 g for 10 min to remove nuclei and large cell debris. The supernatant was centrifuged at 100000 g for 1 h. The membrane pellet was resuspended in buffer A plus 0.5 M NaCl, and the membranes were collected by centrifugation at 200000 g for 1 h. The salt-washed membrane pellet was washed again in buffer A and centrifuged at 100000 g for 1 h. The final membrane pellet was resuspended in a small volume of buffer A using a Teflon-glass homogenizer. The protein concentration was determined, and membrane aliquots were flash-frozen in liquid nitrogen and stored at −70° C.
To measure γ-secretase activity, membranes were incubated at 37° C. for 1 h in 50 μL of buffer containing 20 mM Hepes (pH 7.0) and 2 mM EDTA. At the end of the incubation, Aβ 40 and Aβ 42 were measured using an electrochemiluminescence (ECL)-based immunoassay. Aβ 40 was identified with antibody pairs TAG-G2-10 and biotin-W02, while Aβ 42 was identified with TAG-G2-11 and biotin-4G8. The ECL signal was measured using an ECL-M8 instrument (IGEN International, Inc.) according to the manufacturer's instructions. The data presented were the means of the duplicate or triplicate measurements in each experiment. The characteristics of γ-secretase activity described were confirmed using more than five independent membrane preparations.

Broadly, the IC50 is the concentration needed to halve the response being measured. Regarding `O=S(=O)(CC[C@@H]1OCC[C@@]2(S(=O)(=O)c3ccc(Cl)cc3)c3c(F)ccc(F)c3OC[C@@H]12)CCn1cccn1` [Compound 4], the half-maximal inhibitory concentration (IC50) stood at 1.4 nM. Turning to `O=S(=O)(CC[C@@H]1OCC[C@@]2(S(=O)(=O)c3ccc(Cl)cc3)c3c(F)ccc(F)c3OC[C@@H]12)c1cccnn1` [Compound 25b], the 50% inhibitory concentration (IC50) turned out to be 4.5 nM. With `O=c1ccc(S(=O)(=O)CC[C@@H]2OCC[C@@]3(S(=O)(=O)c4ccc(Cl)cc4)c4c(F)ccc(F)c4OC[C@@H]23)c[nH]1` [Compound 25a], half-maximal inhibition (IC50) was put at 18.7 nM. Next, `Nc1ncccc1S(=O)(=O)CC[C@@H]1OCC[C@@]2(S(=O)(=O)c3ccc(Cl)cc3)c3c(F)ccc(F)c3OC[C@@H]12` [Compound 27b]: 18 nM. On to `O=S(=O)(CC[C@@H]1OCC[C@@]2(S(=O)(=O)c3ccc(Cl)cc3)c3c(F)ccc(F)c3OC[C@@H]12)c1ncccn1` [Compound 25e], for which the midpoint of inhibition, the IC50, lay at 6.4 nM. Consider `O=S(=O)(CC[C@@H]1OCC[C@@]2(S(=O)(=O)c3ccc(Cl)cc3)c3c(F)ccc(F)c3OC[C@@H]12)c1cnccn1` [Compound 25c], for which the IC50 came to 5.5 nM.

For the molecule `O=c1[nH]cccc1S(=O)(=O)CC[C@@H]1OCC[C@@]2(S(=O)(=O)c3ccc(Cl)cc3)c3c(F)ccc(F)c3OC[C@@H]12` [Compound 27a], the IC50 was found to be 2.8 nM. `Cc1nc(CS(=O)(=O)CC[C@@H]2OCC[C@@]3(S(=O)(=O)c4ccc(Cl)cc4)c4c(F)ccc(F)c4OC[C@@H]23)no1` [Compound 14] had an IC50 of 5.8 nM. `O=S(=O)(CC[C@@H]1OCC[C@@]2(S(=O)(=O)c3ccc(Cl)cc3)c3c(F)ccc(F)c3OC[C@@H]12)Cc1ncon1` [Compound 11] gave an IC50 of 1.7 nM. Regarding `O=S(=O)(CC[C@@H]1OCC[C@@]2(S(=O)(=O)c3ccc(Cl)cc3)c3c(F)ccc(F)c3OC[C@@H]12)c1cncnc1` [Compound 25g], half-maximal inhibition (IC50) required 12.9 nM.

As for `O=S(=O)(CC[C@@H]1OCC[C@@]2(S(=O)(=O)c3ccc(Cl)cc3)c3c(F)ccc(F)c3OC[C@@H]12)c1ccnnc1` [Compound 25d], the IC50 worked out at 10.2 nM.

`O=S(=O)(CC[C@@H]1OCC[C@@]2(S(=O)(=O)c3ccc(Cl)cc3)c3c(F)ccc(F)c3OC[C@@H]12)Cc1ccccn1` [Compound 8a] registered a half-inhibitory concentration (IC50) of 1.9 nM.

Take `COc1ccc(S(=O)(=O)CC[C@@H]2OCC[C@@]3(S(=O)(=O)c4ccc(Cl)cc4)c4c(F)ccc(F)c4OC[C@@H]23)cn1` [Compound 25h]: the concentration for half-maximal inhibition (IC50) turned out to be 16.5 nM. The same measure for `O=S(=O)(CC[C@@H]1OCC[C@@]2(S(=O)(=O)c3ccc(Cl)cc3)c3c(F)ccc(F)c3OC[C@@H]12)Cc1cccnc1` [Compound 8b]: 6.6 nM; for `O=S(=O)(CC[C@@H]1OCC[C@@]2(S(=O)(=O)c3ccc(Cl)cc3)c3c(F)ccc(F)c3OC[C@@H]12)c1ccncn1` [Compound 25f]: 2.9 nM.
